According to PubChem BioAssay (NCI):
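1) Cells in 96-well plates. 2) Compound, 48 h, 5 concentrations. 3) Linear interpolation between surrounding doses. 4) Unreached endpoint = highest concentration. TGI: total growth inhibition.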

How the values were obtained:
Assay in all cases: NCI anticancer screen, dose series, 48 h
[1] = system: BT-549 breast
[2] = system: HCT-116 colon
[3] = system: HL-60(TB) leukemia
[4] = system: K-562 leukemia
[5] = system: M14 melanoma
[6] = system: NCI/ADR-RES ovarian
[7] = system: PC-3 prostate
[8] = system: SK-MEL-2 melanoma
[9] = system: SNB-19 CNS
[10] = system: TK-10 renal

Measured: TGI

CC(=O)Nc1ccc(C(=O)N[C@@H]2C(=O)N3[C@@H]2SC(C)(C)[C@@H]3C(=O)O)cn1
> 100 µM: all assays above
